{"source": "patent US20100266696A1", "about": "“Organic Compounds” (priority 2007, published 2010)", "key": {"[1]": {"experiment": "BET specific surface area (adsorption analysis)", "assay_type": "physicochemical", "protocol": "(§1) Particles still appear as rectangularly shaped fragments with smoothed edges and an average size around or slightly above 1 μm. The specific surface area of the dried suspension (analysed by adsorption analysis, BET surface measurement) is determined to be 4.0 m^2/g.\nThe specific surface area of the final product by BET analysis is determined to be 4.0 m2/g."}, "[2]": {"experiment": "Aggregation/agglomeration tendency: jet-milled vs high pressure homogenised and dried (Example 4)", "assay_type": "physicochemical", "excerpt": "The mill is equipped with 3 nozzles of 1.9 mm diameter. […] As a consequence, the material has to be co-milled with a force control agent such as magnesium stearate in order to obtain a freely flowable non-agglomerating micronised drug substance."}, "[3]": {"experiment": "Laser light diffraction particle size analysis of high pressure homogenised glycopyrrolate suspension (Example 1)", "assay_type": "physicochemical", "settings": "suspension in acetone after homogenisation at 950 bar, 48 passes; ultrasonication 60 W 480 s", "protocol": "The suspension is then homogenised at a pressure drop of 950 bar, a reflux temperature of about 9-12.5° C., and a mixing/reflux vessel jacket temperature of 2° C. The piston pump stroke frequency is about 60, and the process is run for a total of 60 minutes, which is equivalent to a total of 48 passes or homogenisation cycles. Samples are also taken as in process control after 15 (12 passes) and 30 (24 passes) minutes, and analyzed along with the final product.\n(§2) The crystallites appear to break into fairly regular, rectangularly shaped fragments of smaller size in the early stages of homogenization, which are subsequently comminuted and smoothed further. Particle size decreases further at an increasing number of homogenization cycles, after 24 passes the average particle size is around 1 μm already, and the particle edges are noticeably more rounded than initially or after only 12 passes. No significant changes are observed in particles isolated after 24 and 48 passes through the homogeniser."}, "[4]": {"settings": "final product after spray drying; ultrasonication 60 W 480 s", "protocol": "The spray dryer is operated at an outlet temperature of around 75-78° C., i.e., above the boiling point of neat acetone, in order to avoid solvent condensation in the spray tower. The inlet temperature is set to 100° C., and the experiment initiated by spraying pure solvent. The spray rate is set to a flow of 5 mL/min using a Büchi lab scale spray dryer, with the aspirator operated at 100%. The nitrogen flow rate is kept constant at 600-700 l/h. At these operating conditions, the homogenised suspension is sprayed, and a dry powder is collected in a cyclone followed by a cloth filter.\nOnce again ultrasonication at 60 W is applied for 480 seconds to break any loose aggregates in the product prior to starting the particle size distribution measurement.\nThe final product after spray drying is re-characterized after 25 days of storage at ambient conditions as well as at 4° C."}, "[5]": {"experiment": "Scanning electron microscopy of glycopyrrolate materials (Example 1)", "assay_type": "physicochemical", "excerpt": "as §2, §1"}, "[6]": {"experiment": "X-ray powder diffraction and DSC crystallinity", "assay_type": "physicochemical", "settings": "final product after spray drying"}}}
{"smiles": "C[N+]1(C)CCC(OC(=O)C(O)(c2ccccc2)C2CCCC2)C1.[Br-]", "note": "(stereo not shown) [glycopyrrolate, 3-[(cyclopentyl-hydroxyphenylacetyl)oxy]-1,1-dimethyl-pyrrolidinium bromide]", "values": [{"measurement": "specific surface area (BET)", "setting": "[1]; dried suspension", "result": 4.0, "unit": "m^2/g"}, {"measurement": "specific surface area by BET analysis", "setting": "[1]; final product", "result": 4.0, "unit": "m2/g"}, {"measurement": "tendency to aggregate or agglomerate", "setting": "[2]; high pressure homogenised and subsequently dried material (Examples 1, 2 and 3)", "result": "no tendency to aggregate or agglomerate"}, {"measurement": "tendency to aggregate and agglomerate", "setting": "[2]; micronised in fluid bed opposed jet mill", "result": "high tendency to aggregate and agglomerate"}, {"measurement": "×10 mean particle size", "setting": "[3]", "result": 0.6, "unit": "μm"}, {"measurement": "×50 mean particle size", "setting": "[3]", "result": 1.3, "unit": "μm"}, {"measurement": "×90 mean particle size", "setting": "[3]", "result": 3.1, "unit": "μm"}, {"measurement": "mean particle size, ×50", "setting": "[4]", "result": 1.7, "unit": "μm"}, {"measurement": "×90 value", "setting": "[4]", "result": 3.6, "unit": "μm"}, {"measurement": "average particle size", "setting": "[5]; after 24 passes of homogenisation", "result": "around 1 μm"}, {"measurement": "average size by scanning electron microscopy", "setting": "[5]; after homogenisation step", "result": "below 5 μm"}, {"measurement": "average size by SEM", "setting": "[5]; spray dried glycopyrrolate", "result": "~1", "unit": "μm"}, {"measurement": "crystallinity (XPRD and DSC) compared to coarse drug substance", "setting": "[6]", "result": "no change in crystallinity"}]}
